How the values were obtained:
Conditions in all cases: 72 h
Calu-3 [1] = assay: cell viability relative to DMSO; higher = less toxic
HepG2 [2] = assay: as above
Vero E6 [3] = assay: as above
Caco-2 [4] = assay: as above
U2OS [5] = assay: as above
Calu-3 [6] = assay: drug sensitivity score (DSS) for viability; higher = more toxic; extreme values may be limits of the assay
HepG2 [7] = assay: as above
Vero E6 [8] = assay: as above
Caco-2 [9] = assay: as above
U2OS [10] = assay: as above
Calu-3 [11] = assay: relative viability EC50 (midpoint between 100% and the lowest measured viability); higher = less toxic
Vero E6 [12] = assay: as above
Caco-2 [13] = assay: as above
U2OS [14] = assay: as above

| Compound | cell viability (Calu-3 [1]; 1 nM) [%] | cell viability (Calu-3 [1]; 10 nM) [%] | cell viability (Calu-3 [1]; 100 nM) [%] | cell viability (Calu-3 [1]; 1000 nM) [%] | cell viability (Calu-3 [1]; 10000 nM) [%] | cell viability (HepG2 [2]; 1 nM) [%] | cell viability (HepG2 [2]; 10 nM) [%] | cell viability (HepG2 [2]; 100 nM) [%] | cell viability (HepG2 [2]; 1000 nM) [%] | cell viability (HepG2 [2]; 10000 nM) [%] | cell viability (Vero E6 [3]; 1 nM) [%] | cell viability (Vero E6 [3]; 10 nM) [%] | cell viability (Vero E6 [3]; 100 nM) [%] | cell viability (Vero E6 [3]; 1000 nM) [%] | cell viability (Vero E6 [3]; 10000 nM) [%] | cell viability (Caco-2 [4]; 1 nM) [%] | cell viability (Caco-2 [4]; 10 nM) [%] | cell viability (Caco-2 [4]; 100 nM) [%] | cell viability (Caco-2 [4]; 1000 nM) [%] | cell viability (Caco-2 [4]; 10000 nM) [%] | cell viability (U2OS [5]; 1 nM) [%] | cell viability (U2OS [5]; 10 nM) [%] | cell viability (U2OS [5]; 100 nM) [%] | cell viability (U2OS [5]; 1000 nM) [%] | cell viability (U2OS [5]; 10000 nM) [%] | drug sensitivity score (Calu-3 [6]) | drug sensitivity score (HepG2 [7]) | drug sensitivity score (Vero E6 [8]) | drug sensitivity score (Caco-2 [9]) | drug sensitivity score (U2OS [10]) | relative viability EC50 (Calu-3 [11]) [µM] | relative viability EC50 (Vero E6 [12]) [µM] | relative viability EC50 (Caco-2 [13]) [µM] | relative viability EC50 (U2OS [14]) [µM] |
| --- | --- | --- | --- | --- | --- | --- | --- | --- | --- | --- | --- | --- | --- | --- | --- | --- | --- | --- | --- | --- | --- | --- | --- | --- | --- | --- | --- | --- | --- | --- | --- | --- | --- | --- |
| N=C(N)NN=C1C=CC(=NNC(N)=S)C=C1 [ambazone] | 105 | 95.8 | 94.1 | 98.2 | 118 | 97.1 | 95.3 | 102 | 83.4 | 63.2 | 90.9 | 95.1 | 102 | 100 | 103 | 88.4 | 94.9 | 94.6 | 91.2 | 92.7 | 95 | 94.8 | 97.9 | 99.3 | 95 | 0 | 3.9 | 0 | 0 | 0 | > 10 | > 10 | > 10 | > 10 |
| Cc1cc(O)c(C(=O)N[C@@H](C(=O)N[C@@H]2C(=O)N3C(C(=O)O)=C(CSc4nnnn4C)CS[C@H]23)c2ccc(O)cc2)cn1 [cefpiramide] | 99 | 102 | 108 | 106 | 98 | – | – | – | – | – | 101 | 94.1 | 100 | 104 | 96.3 | 94.2 | 106 | 116 | 110 | 95.3 | 93.4 | 98.3 | 96.5 | 99.5 | 101 | 0 | – | 0 | 0 | 0 | > 10 | > 10 | > 10 | > 10 |
| CC(C)(C)NCC(O)c1cc(Cl)c(N)c(Cl)c1 (stereo unspecified) [clenbuterol] | 108 | 85.1 | 100 | 93.7 | 97.4 | – | – | – | – | – | 95.3 | 101 | 97.8 | 104 | 112 | 93.7 | 89.9 | 103 | 90.8 | 117 | 97.6 | 95 | 105 | 98.2 | 96.9 | 0 | – | 0 | 0 | 0 | > 10 | > 10 | > 10 | > 10 |
| Clc1cccc(Cl)c1NC1=NCCN1 [clonidine] | 98.4 | 87.9 | 90.4 | 87 | 88.8 | – | – | – | – | – | 95.6 | 101 | 102 | 99.3 | 95.2 | 95.3 | 95.6 | 96.1 | 84.1 | 94 | 103 | 103 | 95.9 | 101 | 98.5 | 2.3 | – | 0 | 0 | 0 | > 10 | > 10 | > 10 | > 10 |
| Nc1ncn([C@H]2C[C@H](O)[C@@H](CO)O2)c(=O)n1 [decitabine] | 109 | 105 | 101 | 107 | 93.5 | 95.8 | 98.6 | 82.6 | 71.9 | 69.8 | 103 | 102 | 95.1 | 93 | 93.2 | 97.2 | 88.3 | 82.2 | 89.4 | 88.4 | 102 | 102 | 99.9 | 100 | 101 | 0 | 6.6 | 0 | 1.7 | 0 | > 10 | > 10 | > 10 | > 10 |
| C[C@]12C=CC(=O)N[C@@H]1CC[C@@H]1[C@@H]2CC[C@]2(C)[C@@H](C(=O)Nc3cc(C(F)(F)F)ccc3C(F)(F)F)CC[C@@H]12 [dutasteride] | 111 | 99 | 98.2 | 105 | 106 | – | – | – | – | – | – | – | – | – | – | 111 | 93 | 105 | 97.4 | 104 | – | – | – | – | – | 0 | – | – | 0 | – | > 10 | – | > 10 | – |
| FC(F)OC(F)(F)C(F)Cl (stereo unspecified) [enflurane] | 85.1 | 94.2 | 85.6 | 101 | 103 | – | – | – | – | – | 94.7 | 103 | 98.4 | 104 | 103 | 96.9 | 104 | 98.3 | 103 | 107 | – | – | – | – | – | 0 | – | 0 | 0 | – | > 10 | > 10 | > 10 | – |
| O=C1OC2(c3ccccc31)c1cc(I)c(O)c(I)c1Oc1c2cc(I)c(O)c1I [erythrosine] | 102 | 104 | 113 | 86.6 | 53.6 | 104 | 109 | 97.6 | 103 | 53.4 | 87.3 | 96.4 | 98.7 | 81.6 | 64.5 | 99.2 | 98.7 | 102 | 93.8 | 51.9 | 94.6 | 91.7 | 97 | 88.7 | 57.3 | 4.4 | 2.2 | 3.7 | 3.6 | 3.9 | – | – | – | – |
| Cn1c(=O)c2c(ncn2CCOC(=O)C(C)(C)Oc2ccc(Cl)cc2)n(C)c1=O [etofylline-clofibrate] | 96.1 | 98.9 | 93.2 | 94.3 | 89.5 | – | – | – | – | – | 92.8 | 109 | 91.6 | 96.1 | 104 | 98 | 100 | 89.4 | 91.4 | 93.9 | 98 | 91.9 | 101 | 95.9 | 97.3 | 0 | – | 0 | 0.3 | 0 | > 10 | > 10 | > 10 | > 10 |
| CC(C)(C(=O)O)c1ccc(C(O)CCCN2CCC(C(O)(c3ccccc3)c3ccccc3)CC2)cc1 (stereo unspecified) [fexofenadine] | – | – | – | – | – | – | – | – | – | – | – | – | – | – | – | – | – | – | – | – | – | – | – | – | – | 0 | – | 0 | – | 0 | – | – | – | – |
| CC(O)CN1CCN(CC(=O)[O-])CCN(CC(=O)[O-])CCN(CC(=O)[O-])CC1.[Gd+3] (stereo unspecified) [gadoteridol] | 101 | 91.2 | 95.3 | 102 | 96.1 | – | – | – | – | – | 94.7 | 93.1 | 110 | 93.1 | 105 | 103 | 110 | 96 | 142 | 92.1 | 93.2 | 103 | 98.5 | 99.1 | 103 | 0 | – | 0 | 0 | 0 | > 10 | > 10 | > 10 | > 10 |
| CCC(=O)O[C@H](CC(=O)O)C[N+](C)(C)C [levocarnitine-propionate] | 87.9 | 108 | 97.9 | 100 | 85.8 | – | – | – | – | – | 106 | 105 | 99.2 | 100 | 104 | 94.7 | 103 | 98.7 | 108 | 98.5 | – | – | – | – | – | 0.2 | – | 0 | 0 | – | > 10 | > 10 | > 10 | – |
| CN(C)CCN(Cc1cccs1)c1ccccn1 [methapyrilene] | 101 | 101 | 92.6 | 89.3 | 89.7 | – | – | – | – | – | 98.1 | 99.9 | 101 | 96.4 | 96.3 | 103 | 95.2 | 94.2 | 104 | 107 | 102 | 102 | 97.9 | 102 | 96.7 | 0.3 | – | 0 | 0 | 0 | > 10 | > 10 | > 10 | > 10 |
| COc1c(N2C[C@@H]3CCCN[C@@H]3C2)c(F)cc2c(=O)c(C(=O)O)cn(C3CC3)c12 [moxifloxacin] | – | – | – | – | – | – | – | – | – | – | – | – | – | – | – | – | – | – | – | – | – | – | – | – | – | 0 | 0 | 0 | – | 0 | – | – | – | – |
| CO[C@@H]1[C@@H](OC(N)=O)[C@@H](O)[C@H](Oc2ccc3c(O)c(NC(=O)c4ccc(O)c(CC=C(C)C)c4)c(=O)oc3c2C)OC1(C)C [novobiocin] | 98.1 | 101 | 98.8 | 93.6 | 81.2 | – | – | – | – | – | – | – | – | – | – | 124 | 92.9 | 109 | 108 | 112 | – | – | – | – | – | 1.1 | – | – | 0 | – | > 10 | – | > 10 | – |
| CCOC(=O)c1ccc(OCCC2CCN(c3ccc(C)nn3)CC2)cc1 [pirodavir] | – | – | – | – | – | – | – | – | – | – | – | – | – | – | – | – | – | – | – | – | – | – | – | – | – | 0 | 0 | 0 | – | 0 | – | – | – | – |
| Nc1ccc(S(=O)(=O)Nc2ccccn2)cc1 [sulfapyridine] | – | – | – | – | – | – | – | – | – | – | – | – | – | – | – | – | – | – | – | – | – | – | – | – | – | 0 | 0 | 0 | – | 0 | – | – | – | – |
| CC/C(=C(\c1ccccc1)c1ccc(OCCN(C)C)cc1)c1ccccc1 [tamoxifen] | 103 | 95.5 | 94.7 | 86 | 52.7 | 105 | 106 | 105 | 102 | 73.3 | 98.9 | 90 | 93.3 | 86.9 | 58.9 | – | – | – | – | – | 94.6 | 102 | 93 | 97.2 | 87.6 | 4.2 | 0.9 | 3.4 | – | 0 | – | – | – | > 10 |
| N#C/C(=C\c1ccc(O)c(O)c1)C(=O)Nc1ccccc1 [tyrphostin-AG-494] | 93.5 | 102 | 95.1 | 101 | 107 | 101 | 102 | 98.6 | 110 | 54.6 | 104 | 100 | 104 | 105 | 90.6 | 110 | 99.8 | 104 | 95.7 | 88.3 | 105 | 102 | 99.2 | 97.3 | 93.1 | 0 | 1.8 | 0 | 0.2 | 0 | > 10 | > 10 | > 10 | > 10 |
| COc1cc2/c(=N/c3ccc(Br)cc3F)nc[nH]c2cc1OCC1CCN(C)CC1 [vandetanib] | 101 | 95.3 | 85.7 | 66.2 | 13.4 | 113 | 106 | 110 | 96.7 | 74 | 104 | 100 | 98.3 | 72.9 | 20.6 | 109 | 105 | 86 | 88.4 | 57.2 | – | – | – | – | – | 8.7 | 1.5 | 8.2 | 3.3 | – | 1.24 | 1.3 | – | – |
